Reference: patent US20060240463A1, “Markers associated with the therapeutic efficacy of glatiramer acetate” (Rappaport Family Institute for Research in the Medical …, priority 2005, published 2006)

Experiments:
[1] = system: RR-MS patients; experiment: European/Canadian MRI trial, GA-treated PGx cohort: response by SNP genotype ("T1 lesion-free" response definition); assay type: in vivo, human
Description: (§1) Two clinical trials, the European/Canadian trial and U.S. pivotal trial, were used to identify associations between GA responsiveness and SNPs in RR-MS patients. Caucasian patients, that had participated in one of two previously completed randomized, double blind, placebo-controlled, multi-centric clinical trials, were solicited to partake in the present study. In both clinical trials, patients were required to have a diagnosis of definite MS (Poser C M, et al. Ann Neurol., 13(3):227-31 (1983) and a relapsing-remitting course (Lublin F D and Reingold S C, Neurology 46(4):907-11 (1996). Ultimately, 73 and 101 DNA samples of Caucasian patients from the U.S. pivotal and European/Canadian MRI trials, respectively, were analyzed. GA dosage was consistent for both trials (i.e. daily 20-mg subcutaneous injection). Table I compares multiple variables between the general cohort study and the PGx cohort study for the European/Canadian trial and the U.S. pivotal trial.
(§2) Subjects were selected from two previously completed randomized, double blind, placebo-controlled, multi-centric clinical trials. In both clinical trials, patients were required to have a diagnosis of definite MS (Poser C M, et al. New diagnostic criteria for multiple sclerosis: guidelines for research protocols. Ann Neurol., (1983);13(3):227-31) and a relapsing-remitting course (Lublin F D, Reingold S C. Defining the clinical course of multiple sclerosis: results of an international survey. National Multiple Sclerosis Society (USA) Advisory Committee on Clinical Trials of New Agents in Multiple Sclerosis. Neurology, (1996);46(4):907-11) 85 (33.9%) out of 251 patients from the U.S. pivotal trial (Johnson K P, et al. Copolymer 1 reduces relapse rate and improves disability in relapsing-remitting multiple sclerosis: results of a phase 111 multicenter, double-blind placebo-controlled trial. The Copolymer 1 Multiple Sclerosis Study Group. Neurology, (1995);45(7):1268-76; Johnson K P, et al. Extended use of glatiramer acetate (COPAXONE) is well tolerated and maintains its clinical effect on multiple sclerosis relapse rate and degree of disability. Copolymer 1 Multiple Sclerosis Study Group. Neurology, (1998);50(3):701-8), and 108 (45.2%) out of 239 patients from the European/Canadian MRI trial (Comi G, Filippi M, Wolinsky J S. European/Canadian multicenter, double-blind, randomized, placebo-controlled study of the effects of glatiramer acetate on magnetic resonance imaging—measured disease activity and burden in patients with relapsing multiple sclerosis. European/Canadian glatiramer acetate Study Group. Ann Neurol., (2001);49(3):290-7) (including patients from Holland, Italy, Belgium, UK, Canada) consented to participate in this study. The same dosage of GA (i.e. daily 20-mg subcutaneous injection) was used in both trials. Although in the original trials patients were equally assigned to either GA- or placebo-treatment, the ratios in the current PGx study were 37:36 and 4952, for the U.S. pivotal and the European/Canadian MRI trials, respectively. Table I indicates various variables between the General Cohort study and the PGx Cohort study for both the European/Canadian trial and the U.S. pivotal trial.
(§3) The primary endpoint in the European/Canadian MRI trial was the accumulated number of TI-enhancing lesions during 9 months, and an additional inclusion criterion was used calling for the presence of at least one TI-enhancing lesion on MRI screening. The primary end-point for the U.S. pivotal trial was the annualized relapse-rate after two years of treatment.
(§4) The procedure used stringent definitions for response to GA therapy. […] For validation purposes response was also treated as a continuous variable where number of new T1-enhancing lesions within the third trimester was analyzed as the […] variable. […]

[2] = system: RR-MS patients; experiment: European/Canadian MRI trial, GA-treated PGx cohort: response by SNP genotype ("combined" response definition); assay type: in vivo, human
Description: as §1, §2, §3, §4

[3] = system: MHC class II molecules on murine and human antigen-presenting cells; details: cited from earlier work
[4] = system: skin graft, thyroid grafts; details: across minor and major histocompatibility barriers; cited from earlier work
[5] = system: dendritic cells; details: through modulation of dendritic cells; cited from earlier work
[6] = system: RR-MS; details: in vivo; cited from earlier work
[7] = system: murine models resembling inflammatory bowel disease; details: severe ulceration and inflammation; cited from earlier work
[8] = TCRB_rs71878, GEN = 0, GA(N = 43)
[9] = TCRB_rs71878, GEN = 1, GA(N = 43)
[10] = TCRB_rs71878, GEN = 2, GA(N = 43)
[11] = CD80_rs527004, GEN = 0, GA(N = 41)
[12] = CD80_rs527004, GEN = 1, GA(N = 41)
[13] = CD86_rs1129055, GEN = 0, GA(N-35)
[14] = CD86_rs1129055, GEN = 1, GA(N-35)
[15] = CD86_rs1129055, GEN = 2, GA(N-35)
[16] = CD86_rs2001791, GEN = 0, GA(N = 48)
[17] = CD86_rs2001791, GEN = 1, GA(N = 48)
[18] = CD86_rs2001791, GEN = 2, GA(N = 48)
[19] = CD95_rs9827641, GEN = 0, GA(N-47)
[20] = CD95_rs9827641, GEN = 1, GA(N-47)
[21] = CTSS_rs1415148, GEN = 0, GA(N = 47)
[22] = CTSS_rs1415148, GEN = 1, GA(N = 47)
[23] = CTSS_rs1415148, GEN = 2, GA(N = 47)
[24] = CTSS_rs2275235, GEN = 0, GA(N = 43)
[25] = CTSS_rs2275235, GEN = 1, GA(N = 43)
[26] = CTSS_rs2275235, GEN = 2, GA(N = 43)
[27] = MBP_rs470929, GEN = 0, GA(N-32)
[28] = MBP_rs470929, GEN = 1, GA(N-32)
[29] = MBP_rs470929, GEN = 2, GA(N-32)

Substance: glatiramer acetate [GA]
- percentage of responders out of carriers of genotype [1, 8]: 62.07%
- responders/carriers of genotype [1, 8]: 18/29
- percentage of responders out of carriers of genotype [1, 9]: (90%)
- responders/carriers of genotype [1, 9]: 9/10
- percentage of responders out of carriers of genotype [1, 10]: (100%)
- responders/carriers of genotype [1, 10]: 4/4
- percentage of responders out of carriers of genotype [2, 11]: (35.29%)
- responders/carriers of genotype [2, 11]: 12/34
- percentage of responders out of carriers of genotype [2, 12]: 85.71%
- responders/carriers of genotype [2, 12]: 6/7
- responders/carriers of genotype ([2]; CD80_rs527004, GEN = 2, GA(N = 41)): 0/0
- percentage of responders out of carriers of genotype [2, 13]: (16.67%)
- responders/carriers of genotype [2, 13]: 3/18
- percentage of responders out of carriers of genotype [2, 14]: (60%)
- responders/carriers of genotype [2, 14]: 9/15
- percentage of responders out of carriers of genotype [2, 15]: (50%)
- responders/carriers of genotype [2, 15]: 1/2
- percentage of responders out of carriers of genotype [2, 16]: (28.21%)
- responders/carriers of genotype [2, 16]: 11/39
- percentage of responders out of carriers of genotype [2, 17]: 62.5%)
- responders/carriers of genotype [2, 17]: 5/8
- percentage of responders out of carriers of genotype [2, 18]: (100%)
- responders/carriers of genotype [2, 18]: 1/1
- percentage of responders out of carriers of genotype [2, 19]: (22.53%)
- responders/carriers of genotype [2, 19]: 5/24
- percentage of responders out of carriers of genotype [2, 20]: (31.25%)
- responders/carriers of genotype [2, 20]: 5/16
- percentage of responders out of carriers of genotype ([2]; CD95_rs9827641, GEN = 2, GA(N-47)): ((71.43%)^
- percentage of responders out of carriers of genotype [2, 21]: (15%)
- responders/carriers of genotype [2, 21]: 3/20
- percentage of responders out of carriers of genotype [2, 22]: (42.86%)
- responders/carriers of genotype [2, 22]: 9/21
- percentage of responders out of carriers of genotype [2, 23]: (83.33%)
- responders/carriers of genotype [2, 23]: 5/6
- percentage of responders out of carriers of genotype [2, 24]: (19.35%)
- responders/carriers of genotype [2, 24]: 6/31
- percentage of responders out of carriers of genotype [2, 25]: (66.67%)
- responders/carriers of genotype [2, 25]: 4/6
- percentage of responders out of carriers of genotype [2, 26]: (83.33%)
- responders/carriers of genotype [2, 26]: 5/6
- percentage of responders out of carriers of genotype [2, 27]: (18.18%)
- responders/carriers of genotype [2, 27]: 2/11
- percentage of responders out of carriers of genotype [2, 28]: (43.75%)
- responders/carriers of genotype [2, 28]: 7/16
- percentage of responders out of carriers of genotype [2, 29]: (100%)
- responders/carriers of genotype [2, 29]: 5/5
- binding to MHC class II molecules [3]: very rapid, high, and efficient binding
- amelioration of graft rejection [4]: prolongation of skin graft survival and inhibition of functional deterioration of thyroid grafts
- Th2 cell development and IL-10 production [5]: promotes T helper 2 (Th2) cell development and increased IL-10 production
- relapse rate and CNS activity [6]: effectiveness in reducing relapse rate and CNS activity
- macroscopic colonic damage [7]: reduce macroscopic colonic damage
